Measurements from ChEMBL document CHEMBL1201862, “PubChem BioAssay data set” (2004).
Activity calls are given as the source filed them.

Experiments:
[1] = Counterscreen for IDE inhibitors: Luminescence-based cell-based high throughput dose response assay to identify compounds that are cytotoxic to HEK cells. [Related pubchem assays: 434962 (Primary screen (IDE inhibitors in singlicate)), 449730 (Counterscreen (Cytotoxicity in triplicate)), 435028 (Confirmation (IDE inhibitors in triplicate)) …; format: functional; conditions: HEK293
[2] = mitochondrial function rescue without frataxin homolog – Friedreich's ataxia, plus single-dose screen, dose response (AID 1465); format: functional;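 also: yeast depleted of Yfh1p frataxin homolog grown on glycerol needing respiration; WST-1 tetrazolium dye reduction as measure of cellular dehydrogenase metabolic activity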
Troponin, cardiac muscle = Troponin, cardiac muscle (Homo sapiens, UniProt P19429+P45379+P63316); experiment: Fluorescence-based biochemical high throughput dose response assay for activators of the calcium sensitivity of cardiac Regulated Thin Filaments (RTF). [Related pubchem assays (depositor defined):AID493008, AID493018, AID504382, AID504383]; format: protein-complex assay
Insulin-degrading enzyme = target: T1, Insulin-degrading enzyme (Homo sapiens, UniProt P14735); experiment: Dose Response: Fluorescence polarization-based cell-based high throughput dose response assay for inhibitors of insulin-degrading enzyme (IDE). [Related pubchem assays: 434962 (Primary screen (IDE inhibitors in singlicate)), 449730 (Counterscreen (Cytotoxicity in triplicate)), 435028 (Confirmation (IDE inhibitors in triplicate)), 434984 (Summary …; format: functional
T1 sequence (P14735 whole entry): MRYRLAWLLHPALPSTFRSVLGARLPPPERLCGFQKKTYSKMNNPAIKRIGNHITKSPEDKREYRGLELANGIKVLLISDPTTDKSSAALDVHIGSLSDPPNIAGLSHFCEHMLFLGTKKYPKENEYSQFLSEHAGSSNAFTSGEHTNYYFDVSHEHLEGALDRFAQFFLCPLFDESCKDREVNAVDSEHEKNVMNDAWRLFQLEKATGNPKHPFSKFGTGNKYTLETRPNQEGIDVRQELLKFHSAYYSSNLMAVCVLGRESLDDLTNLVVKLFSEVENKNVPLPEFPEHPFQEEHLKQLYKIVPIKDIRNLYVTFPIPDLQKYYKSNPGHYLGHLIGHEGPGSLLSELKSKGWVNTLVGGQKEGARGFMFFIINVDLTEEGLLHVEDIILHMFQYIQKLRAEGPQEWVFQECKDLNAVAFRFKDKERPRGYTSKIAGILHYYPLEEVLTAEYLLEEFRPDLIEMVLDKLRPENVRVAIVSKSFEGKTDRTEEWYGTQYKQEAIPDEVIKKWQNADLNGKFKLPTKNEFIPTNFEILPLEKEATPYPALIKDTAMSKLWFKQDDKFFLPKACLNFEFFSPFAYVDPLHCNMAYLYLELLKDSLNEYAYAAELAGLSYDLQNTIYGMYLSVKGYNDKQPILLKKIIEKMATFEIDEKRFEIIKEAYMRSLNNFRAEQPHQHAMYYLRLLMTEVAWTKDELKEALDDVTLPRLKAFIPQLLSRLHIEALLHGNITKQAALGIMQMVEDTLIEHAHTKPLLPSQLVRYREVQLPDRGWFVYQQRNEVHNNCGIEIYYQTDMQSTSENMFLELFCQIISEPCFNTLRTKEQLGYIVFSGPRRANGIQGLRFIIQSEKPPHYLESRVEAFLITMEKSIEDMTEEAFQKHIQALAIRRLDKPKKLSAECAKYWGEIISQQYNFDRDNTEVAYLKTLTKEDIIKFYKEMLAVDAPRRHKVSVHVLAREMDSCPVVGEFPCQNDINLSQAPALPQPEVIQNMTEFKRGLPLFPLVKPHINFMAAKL

[3] = HEK-293T viability loss after treatment – luminescence, T-cell screen hits, cytotoxicity control for TCR NF-kB inhibitor project, dose response (AID 489026); format: functional, cell-based;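 also: cells exposed to compound about 14 hours before the viability readout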
[4] = blockade of melanocortin 4 receptor signaling – cell-based, plate reader, cherry pick, counter-screen for LGR2 antagonist project, dose response (AID 743444); format: functional;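 also: transfected HEK 293 cells stimulated with alpha-MSH peptide; potency of inhibitors of the alpha-MSH evoked signal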
[5] = toxicity toward HepG2 liver cells – cell-based, plate reader, cherry-pick, antagonist series, cytotoxicity control, dose response (AID 743416); format: functional
[6] = target: T2, Heat shock factor protein 1 (Mus musculus, UniProt P38532); experiment: decrease of HSF1-responsive luciferase luminescence – cell-based, NIH3T3, dose retest, confirmation (AID 2382); format: functional;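 also: NIH3T3 fibroblasts with HSF1-driven luciferase reporter stressed by proteasome inhibitor MG132; luminescence from HSF1-driven luciferase expression after 8 hours of MG132 stress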
T2 sequence (P38532 whole entry): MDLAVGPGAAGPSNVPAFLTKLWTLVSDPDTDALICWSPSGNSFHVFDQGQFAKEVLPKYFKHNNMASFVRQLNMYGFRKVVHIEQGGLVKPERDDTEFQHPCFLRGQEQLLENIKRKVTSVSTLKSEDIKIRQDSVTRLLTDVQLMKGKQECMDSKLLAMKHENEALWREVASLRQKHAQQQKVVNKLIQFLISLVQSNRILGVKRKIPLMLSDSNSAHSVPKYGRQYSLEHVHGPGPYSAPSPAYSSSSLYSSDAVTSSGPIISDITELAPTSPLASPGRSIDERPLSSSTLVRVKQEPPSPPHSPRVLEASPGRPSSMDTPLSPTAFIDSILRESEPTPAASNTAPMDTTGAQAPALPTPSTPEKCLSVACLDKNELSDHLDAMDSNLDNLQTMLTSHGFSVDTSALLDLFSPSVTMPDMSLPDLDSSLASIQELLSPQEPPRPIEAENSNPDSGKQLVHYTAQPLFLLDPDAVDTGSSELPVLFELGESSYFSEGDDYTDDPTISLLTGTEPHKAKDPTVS

[7] = A549 cell cytotoxicity, dose response, cytotoxicity control, plate reader, cherry-pick, antagonist series (AID 743412); format: functional, cell-based
[8] = target: E3 ubiquitin-protein ligase Mdm2/Protein Mdm4 (Homo sapiens, UniProt O15151+Q00987); experiment: disruption of Mdm2/MdmX protein binding – luminescence detection, dose response (AID 504593); format: functional
[9] = viability loss in HEK293 cells – cell-based, plate reader, cherry-picked samples, cytotoxicity control, dose response (AID 743446); format: functional
[10] = blockers of bursicon-stimulated LGR2 cAMP reporter – cell-based, HEK293, CRE-luciferase reporter, cherry pick, set 2, dose response (AID 743343); format: functional;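 also: transfected cells were stimulated with diluted bursicon conditioned medium after compound addition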
cells = format: functional
[11] = HIV-1 AD8 envelope cell-cell fusion blockers – cherry-pick, dose response (AID 652062); format: functional, cell-based;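 also: luciferase signal from cell-cell fusion driven by HIV-1 clade B AD8 Env; potency is for inhibitors of fusion seen as a drop in luminescence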
[12] = NIH3T3 cell viability loss – ATP luminescence, mouse fibroblasts, counter-screen, dose response (AID 2010); format: functional, cell-based;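 also: cells exposed to compound for about 90 hours before reading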
[13] = blockers of HIV-1 envelope-mediated cell-cell fusion – cherry-pick, dose response (AID 652057); format: functional, cell-based
[14] = viability loss in CEM21 cells – cell-based, CellTiter-Glo luminescence, cherry-picked, cytotoxicity control for viral fusion inhibitor project, dose response (AID 652042); format: functional;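 also: potency for signal decrease meaning cytotoxicity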
INS1 = experiment: INS-1E survival protection against cytokine death – cell-based, luminescence, retest, dose response (AID 449756); format: functional; conditions: Rattus norvegicus;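 also: cell death triggered by IL-1 beta plus TNF-alpha plus IFN-gamma mixture; protective hits raise ATP signal compared with cytokine alone wells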
[15] = Luminescence Cell-Based Dose Retest to Confirm Inhibitors of Cancer Stem Cells. [Related pubchem assays (depositor defined):AID2717, AID2721]; format: functional; conditions: Homo sapiens
[16] = target: Neurotensin receptor type 1 (Homo sapiens, UniProt P30989); format: functional;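 also: Image-based confirmatory dose-response assay measuring agonist activity at NTR1; NTR1-expressing U2OS osteosarcoma cells imaged for beta-arrestin GFP spot formation; agonist potency where compounds increase beta-arrestin recruitment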
[17] = off-target signal loss in HeLa-CEM21 co-culture – HeLa F-luc CTL cells, cherry-picked, counter-screen for HIV-1 Env fusion inhibitor project, dose response (AID 652040); format: functional, cell-based;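 also: potency for signal decrease marking cytotoxic or nonspecific inhibition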
[18] = HepG2 cell cytotoxicity, dose response, cytotoxicity control for non-replicating M. tuberculosis project (AID 489018); format: functional; conditions: Mycobacterium tuberculosis
[19] = Vero E6 cell cytotoxicity, dose response, cytotoxicity control for non-replicating M. tuberculosis project, secondary assay (AID 492998); format: functional, VeroE6; conditions: Vero C1008
[20] = Trypanosoma cruzi growth suppression in host cells – NIH3T3 host cells, beta-gal luminescence, confirmation (AID 2044); format: functional, cell-based;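 also: intracellular parasites grown in NIH/3T3 mouse fibroblasts as host cells; luminescent beta-galactosidase reporter signal from transgenic T. cruzi replicating inside host cells; inhibitors lower the luminescence signal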
[21] = blockers of HIV-1 ZM109 envelope-driven cell-cell fusion – HeLa effector, CEM target cells, luciferase, cherry-pick, dose response (AID 652058); format: functional, cell-based;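 also: luciferase signal from HIV-1 Env mediated cell-cell fusion of effector and target cells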
[22] = THP-1 cell cytotoxicity, dose response, cytotoxicity control for non-replicating M. tuberculosis project (AID 489025); format: functional
[23] = target: G-protein coupled receptor 55 (Homo sapiens, UniProt Q9Y2T6); experiment: inhibition of LPI-stimulated GPR55 beta-arrestin translocation – imaging, U2OS, beta-arrestin-GFP, LPI agonist, primary screen (AID 2013); format: functional;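 also: antagonist potency measured as reduced agonist-driven arrestin aggregation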
Streptokinase A = target: T3, Streptokinase A (Streptococcus pyogenes serotype M1, UniProt P10520); experiment: viability-normalized secreted streptokinase activity reduction – plasminogen activation absorbance, OD405, dose response (AID 1914); format: functional, Streptococcus pyogenes M1 GAS;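 also: secreted streptokinase activity via plasminogen activation per viability signal from cell pellet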
T3 sequence (P10520 whole entry): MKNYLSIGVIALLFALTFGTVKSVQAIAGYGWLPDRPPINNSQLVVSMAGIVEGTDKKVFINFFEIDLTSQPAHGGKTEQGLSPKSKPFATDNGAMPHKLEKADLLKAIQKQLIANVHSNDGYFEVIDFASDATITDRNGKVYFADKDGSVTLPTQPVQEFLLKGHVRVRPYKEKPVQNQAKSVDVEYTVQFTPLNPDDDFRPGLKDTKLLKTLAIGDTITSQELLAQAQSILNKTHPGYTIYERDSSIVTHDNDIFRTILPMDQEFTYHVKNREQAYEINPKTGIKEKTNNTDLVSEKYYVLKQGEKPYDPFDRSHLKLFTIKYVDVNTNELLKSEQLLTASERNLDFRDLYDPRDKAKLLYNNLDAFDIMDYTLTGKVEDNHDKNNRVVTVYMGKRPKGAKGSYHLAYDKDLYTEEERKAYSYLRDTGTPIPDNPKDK

[24] = tested on: Streptococcus sp. 'group A'; experiment: Streptococcus pyogenes SK(-)GAS viability under kanamycin – luminescence, BacTiterGlo, confirmation, counter-screen for streptokinase expression inhibitor project, dose response (AID 1900); format: functional, organism-based
Streptococcus = experiment: GAS UMAA2166 growth inhibition – luminescence, BacTiterGlo, counter-screen for streptokinase expression inhibitor project, dose response (AID 1915); format: functional, organism-based;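 also: potency for reduction of bacterial viability or growth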

E3 ubiquitin-protein ligase Mdm2/Protein Mdm4, sequence (Q00987 whole entry): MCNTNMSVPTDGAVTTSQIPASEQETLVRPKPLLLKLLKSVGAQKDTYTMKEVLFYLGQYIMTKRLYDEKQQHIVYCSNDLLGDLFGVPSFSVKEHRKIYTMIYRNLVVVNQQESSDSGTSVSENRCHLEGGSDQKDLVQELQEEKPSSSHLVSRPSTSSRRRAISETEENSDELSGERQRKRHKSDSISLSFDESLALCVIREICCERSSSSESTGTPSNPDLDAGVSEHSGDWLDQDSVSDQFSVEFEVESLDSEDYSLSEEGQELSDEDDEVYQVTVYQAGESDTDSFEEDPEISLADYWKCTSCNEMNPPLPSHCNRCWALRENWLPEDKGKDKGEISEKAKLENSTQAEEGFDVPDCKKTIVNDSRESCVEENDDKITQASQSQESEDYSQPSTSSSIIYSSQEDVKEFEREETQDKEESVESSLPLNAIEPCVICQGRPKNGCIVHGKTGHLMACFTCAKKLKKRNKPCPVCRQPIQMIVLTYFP
E3 ubiquitin-protein ligase Mdm2/Protein Mdm4, sequence (O15151 whole entry): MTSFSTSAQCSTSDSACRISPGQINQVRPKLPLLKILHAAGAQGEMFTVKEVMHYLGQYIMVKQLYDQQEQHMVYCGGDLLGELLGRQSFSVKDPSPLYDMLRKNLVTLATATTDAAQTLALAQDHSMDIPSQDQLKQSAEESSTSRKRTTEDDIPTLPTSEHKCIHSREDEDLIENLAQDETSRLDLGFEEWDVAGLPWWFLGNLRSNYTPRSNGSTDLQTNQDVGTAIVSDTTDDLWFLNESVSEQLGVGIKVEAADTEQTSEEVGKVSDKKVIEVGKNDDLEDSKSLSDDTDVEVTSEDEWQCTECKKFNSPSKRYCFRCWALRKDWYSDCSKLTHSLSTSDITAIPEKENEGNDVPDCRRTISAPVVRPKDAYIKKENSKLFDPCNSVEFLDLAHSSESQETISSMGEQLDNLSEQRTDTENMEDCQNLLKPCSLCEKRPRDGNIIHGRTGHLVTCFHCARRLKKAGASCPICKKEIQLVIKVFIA
Neurotensin receptor type 1, sequence (P30989 whole entry, the tested form may be a part): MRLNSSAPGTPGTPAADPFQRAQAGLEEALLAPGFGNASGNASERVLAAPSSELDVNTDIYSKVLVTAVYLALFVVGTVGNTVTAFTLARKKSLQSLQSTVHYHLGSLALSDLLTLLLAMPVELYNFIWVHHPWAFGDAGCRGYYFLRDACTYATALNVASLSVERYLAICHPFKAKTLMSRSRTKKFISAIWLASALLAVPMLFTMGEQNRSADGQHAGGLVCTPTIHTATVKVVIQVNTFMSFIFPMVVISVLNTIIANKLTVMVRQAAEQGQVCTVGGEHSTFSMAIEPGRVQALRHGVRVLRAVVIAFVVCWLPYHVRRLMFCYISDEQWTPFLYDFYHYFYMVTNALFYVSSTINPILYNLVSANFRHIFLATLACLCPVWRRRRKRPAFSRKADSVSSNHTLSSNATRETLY
G-protein coupled receptor 55, sequence (Q9Y2T6 whole entry): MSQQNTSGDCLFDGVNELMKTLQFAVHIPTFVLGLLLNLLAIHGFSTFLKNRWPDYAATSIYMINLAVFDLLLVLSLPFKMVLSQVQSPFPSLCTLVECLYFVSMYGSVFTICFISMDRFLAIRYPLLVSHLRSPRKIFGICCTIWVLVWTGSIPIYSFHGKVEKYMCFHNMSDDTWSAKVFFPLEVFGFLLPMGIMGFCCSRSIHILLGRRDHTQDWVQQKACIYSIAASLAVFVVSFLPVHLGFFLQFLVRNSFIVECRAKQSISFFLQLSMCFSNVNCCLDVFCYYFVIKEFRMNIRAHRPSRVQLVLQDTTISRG

What does the source list for `N#C/C(=C\c1ccc(N2CCOCC2)o1)C(=O)NC1CCCCC1`?
IC50 [1]: 31.8 µM (not active); EC50 [2]: > 100 µM (active); EC50 (Troponin, cardiac muscle): 6.89 µM (active); IC50 (Insulin-degrading enzyme): 8.05 µM (active)

Which IC50 [3] does the source give for `O=c1oc2ccccc2cc1-c1cn(-c2ccccc2)c(S)n1` here?
Its IC50 is > 80 µM (inactive).

And the AC50 [4]?
The AC50 was 0.259 µM (active).

And the AC50 [5]?
The AC50 was 19.4 µM (active).

And the EC50 [6]?
Its EC50 is < 0.16 µM (active).

And the AC50 [7]?
Its AC50 is 8.78 µM (active).

What about the IC50 [8] of the same compound?
Its IC50 is 0.00374 µM (active).

And the AC50 [9]?
Its AC50 is 19.4 µM (active).

And the AC50 [10]?
Its AC50 is 0.316 µM (active).

With `CC(NCC(O)COCCC12CC3CC(CC(C3)C1)C2)c1ccccc1` (configuration not stated) as the compound, how does the IC50 (cells) read?
The IC50 was 14.6 µM (active).

What about the AC50 [11] of the same compound?
Its AC50 is 16.8 µM (active).

What about the EC50 [12] of the same compound?
The EC50 was > 60 µM (not active).

What about the AC50 [13] of the same compound?
Its AC50 is 3.45 µM (active).

What about the AC50 [14] of the same compound?
Its AC50 is 13.3 µM (active).

And the AC50 (INS1)?
Its AC50 is 7.3 µM (active).

And the AC50 [15]?
Its AC50 is 6.14 µM (active).

And the EC50 [16]?
The EC50 was 19.9 µM (active).

And the AC50 [17]?
The AC50 was 6.93 µM (active).

What about the CC50 [18] of the same compound?
Its CC50 is 12.7 µM (active).

And the CC50 [19]?
The CC50 was 13.7 µM (active).

What about the EC50 [20] of the same compound?
Its EC50 is 0.157 µM (active).

And the AC50 [21]?
Its AC50 is 11.2 µM (active).

What about the CC50 [22] of the same compound?
The CC50 was 12.5 µM (active).

What about the IC50 [23] of the same compound?
The IC50 was 3.25 µM (active).

For `CCC(/C=C1\Oc2ccc(OC)cc2N1C)=C\c1sc2ccccc2[n+]1CCCS(=O)(=O)[O-]`, which EC50 (Troponin, cardiac muscle) is on record?
Its EC50 is 0.853 µM (active).

For `C/C(=N\Nc1cc(C)nc(-c2ccccc2O)n1)c1ccccc1O`, which EC50 (Streptokinase A) is on record?
Its EC50 is 14 µM (active).

And the EC50 [24]?
The EC50 was 4.57 µM (active).

And the IC50 [8]?
Its IC50 is 6.71 µM (active).

What about the EC50 (Streptococcus) of the same compound?
The EC50 was > 150 µM (not active).
